From publication PMC9283668, “Natural and commercial antibiotic comparison with drugs modeling cell integrity cell stability of Bio-Kinetics changes under morphological topographies cells with lower toxicological characteristics for multidrug resistances problem” (Saudi Journal of Biological Sciences, 2022)

What was measured:
[1] = Protocol: (§1) Pharmacokinetic compartment modelling was used on these novel substances, which had been derived from A. vasica and C. procera. The half-life was determined by the regions under plasma concentration, while the peak plasma concentration as well as timing acquired immediately from the dataset obtained in this investigation. Medicinal phyto-constituents were incorporated to the compartment model and an automatic calculating software tool was coupled with win-Nonlin ® Software to these bioactive chemicals.
Selected compounds were administered using a one-compartment oral dosage model, extract the one-compartment model parameters, the non-compartment model Parameters are necessary. The equations for non-compartment and one-compartment variables are given below respectively. • (1) w = (AUC, T max, T1/2) • (2) β = (ka, ke, V). • (3) β = (ke, V) • (4) CL po = V × Ke
If only oral clearance is required, CL po should be used instead of AUC. When it comes to IV dosage, however, just w = (AUC, T1/2) is required to claim the single dozes changes in (3).
Plasma concertation either orally or via an injection of selected compounds The natural antibiotic compounds by being taken into cells and either bacterial changes and it formed a tragedy to cells as expressed complete changes used in the formation of ATP in cells. The pharmacokinetic description of antibiotic compounds are shown in below equation and represented mathematically by equations (1), (2), (3), (4).(1) dSdt=rS,end+rS,ex-rS,elim (2) rS,end=f(t,S,I,G,E,F,A,KS,end) (3) rS,ex=g(t,MS) (4) rS,elim=h(t,S,I,E,KS,elim)

[2] = type: in vitro ADME
Protocol: as §1, with “[…].” for “vasica and C.”

Row | Compound | T max (Mean) [1] | Absorption capacity (Mean) [2] | AUC, area under plasma concentration (Mean) [1] | Half life (Mean) [1]
1 | Myristyl diglucoside | 0.2 | – | – | –
2 | S-allylcysteine acid | – | 2.1 | 0.1 | 2.1
3 | CCCCC/C=C\C/C=C\CCCCCCCC(=O)O[C@H]1CC[C@@]2(C)C(=CC[C@H]3[C@@H]4CC[C@H]([C@H](C)CC[C@@H](CC)C(C)C)[C@@]4(C)CC[C@@H]32)C1 [B-Sitosteryl linoleate] | – | – | 0.1 | –
